The record followed here is PubChem BioAssay (NCI).

Structures are written as SMILES.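 Step 1: Grow cells in 96-well plates. Step 2: Expose to compound for 48 hours at 5 concentrations. Step 3: Interpolate endpoints linearly; if unreached, use highest concentration. TGI: concentration producing complete growth inhibition.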

Some test systems named below: ACHN renal; HCT-116 colon; HL-60(TB) leukemia; LOX IMVI melanoma; MALME-3M melanoma; MCF7 breast; MDA-MB-231 breast; MDA-N; NCI/ADR-RES ovarian; OVCAR-8 ovarian; PC-3 prostate; SF-268 CNS; SK-MEL-28 melanoma; SK-MEL-5 melanoma; SK-OV-3 ovarian; SW-620 colon; T-47D breast; UACC-257 melanoma; UO-31 renal.
Holding throughout (assay): DTP human tumour cell line panel, 48 h

A word on the TGI: it is the concentration at which net growth stops. A lower TGI goes with greater sensitivity of the cells. Consider `O=C1NC(Cc2c[nH]c3ccccc23)C(=O)N2C(c3ccccc3)c3[nH]c4ccccc4c3C[C@@H]12` (some centres undefined), for which the total growth inhibition concentration (TGI) with ACHN renal was 89.2 µM; in the assay with HCT-116 colon, 30.6 µM; with HL-60(TB) leukemia, 50.8 µM; in the assay with LOX IMVI melanoma, 40.6 µM; in the assay with MALME-3M melanoma it was 33.7 µM; in the assay on MCF7 breast, greater than 100 µM. Also, the total growth inhibition concentration (TGI) with MDA-MB-231 breast amounted to 42.2 µM; with MDA-N, 38.9 µM; in the assay with NCI/ADR-RES ovarian it was 58.3 µM; in the assay with OVCAR-8 ovarian, 82.7 µM; with PC-3 prostate, 53.8 µM; in the assay with SF-268 CNS, 95.7 µM. The TGI is greater than 100 µM with SK-MEL-28 melanoma; 32.7 µM in the assay on SK-MEL-5 melanoma; greater than 100 µM in the assay on SK-OV-3 ovarian; greater than 100 µM in the assay on SW-620 colon; greater than 100 µM in the assay on T-47D breast; 51.6 µM in the assay on UACC-257 melanoma. This compound displayed a concentration for total growth inhibition (TGI) in the assay with UO-31 renal of 67.3 µM.
On to `CCOC(=O)c1c(-c2ccccc2)[nH]c2ccc(Cl)cc2c1=O`, for which the concentration for total growth inhibition (TGI) with ACHN renal was 93.2 µM; in the assay with HCT-116 colon, greater than 100 µM; in the assay with HL-60(TB) leukemia it was greater than 100 µM; in the assay with LOX IMVI melanoma it was greater than 100 µM; with MALME-3M melanoma, greater than 100 µM; in the assay on MCF7 breast, greater than 100 µM. Moreover, the total growth inhibition concentration (TGI) in the assay on MDA-MB-231 breast, in the assay on MDA-N, in the assay with NCI/ADR-RES ovarian, with OVCAR-8 ovarian, in the assay on PC-3 prostate and in the assay with SF-268 CNS was greater than 100 µM in each case. For the same compound, the TGI is greater than 100 µM in the assay on SK-MEL-28 melanoma; greater than 100 µM in the assay on SK-MEL-5 melanoma; greater than 100 µM in the assay with SK-OV-3 ovarian; greater than 100 µM in the assay with SW-620 colon; 62 µM with T-47D breast; greater than 100 µM in the assay on UACC-257 melanoma. This compound also had a concentration for total growth inhibition (TGI) with UO-31 renal of 70.8 µM.
For `O=C(/C=C/c1ccccc1)CCC1C(=O)NC(=O)NC1=O`, the concentration for total growth inhibition (TGI) in the assay on ACHN renal, in the assay on HCT-116 colon, in the assay on HL-60(TB) leukemia, in the assay with LOX IMVI melanoma, in the assay with MALME-3M melanoma and with MCF7 breast was greater than 100 µM each time. Also, the TGI in the assay on MDA-MB-231 breast, with MDA-N, with NCI/ADR-RES ovarian, in the assay with OVCAR-8 ovarian, in the assay with PC-3 prostate and with SF-268 CNS was greater than 100 µM each time. Besides, the TGI in the assay on SK-MEL-28 melanoma, in the assay on SK-MEL-5 melanoma, in the assay on SK-OV-3 ovarian, in the assay with SW-620 colon, in the assay with T-47D breast and in the assay on UACC-257 melanoma was greater than 100 µM in each case. In addition, the TGI with UO-31 renal was greater than 100 µM.
For `NC(=O)NC(=O)c1ccc(NC(=O)CBr)cc1`, the total growth inhibition concentration (TGI) with ACHN renal is 2.91 µM; in the assay with HCT-116 colon, 2.29 µM; with HL-60(TB) leukemia, 3.27 µM; in the assay on LOX IMVI melanoma it was 2.26 µM; with MALME-3M melanoma, 3.96 µM; with MCF7 breast, 4.9 µM. In addition, the TGI was 6.48 µM with MDA-MB-231 breast; 5 µM with MDA-N; 7.53 µM in the assay with NCI/ADR-RES ovarian; 8.38 µM in the assay with OVCAR-8 ovarian; 4.39 µM in the assay on PC-3 prostate; 3.09 µM with SF-268 CNS. Besides, the TGI with SK-MEL-28 melanoma is 13.1 µM; in the assay with SK-MEL-5 melanoma it was 3.23 µM; in the assay with SK-OV-3 ovarian, 9.49 µM; in the assay with SW-620 colon, 1.74 µM; with T-47D breast, 4.01 µM; with UACC-257 melanoma, 5.29 µM. In the assay with UO-31 renal, this compound displayed a total growth inhibition concentration (TGI) of 2.78 µM.
On to `C=CC1(c2ccc(Br)cc2)OCCCO1`, for which the concentration for total growth inhibition (TGI) in the assay with ACHN renal, in the assay with HCT-116 colon, in the assay on HL-60(TB) leukemia, with LOX IMVI melanoma, in the assay with MALME-3M melanoma and in the assay with MCF7 breast was greater than 100 µM in each case. The total growth inhibition concentration (TGI) in the assay with MDA-MB-231 breast, with MDA-N, with NCI/ADR-RES ovarian, in the assay on OVCAR-8 ovarian, with PC-3 prostate and in the assay on SF-268 CNS was greater than 100 µM in each case. In addition, the TGI in the assay with SK-MEL-28 melanoma, with SK-MEL-5 melanoma, in the assay on SK-OV-3 ovarian, in the assay on SW-620 colon, with T-47D breast and in the assay with UACC-257 melanoma was greater than 100 µM throughout. In the assay with UO-31 renal, this compound registered a concentration for total growth inhibition (TGI) greater than 100 µM.
As to `COC(=O)C(Cc1c[nH]c2ccccc12)NP(=O)(O)OCC1OC(n2cc(F)c(=O)[nH]c2=O)CC1O` (centres undefined), the TGI in the assay on ACHN renal, with HCT-116 colon, in the assay with HL-60(TB) leukemia, in the assay on LOX IMVI melanoma, in the assay with MALME-3M melanoma and in the assay on MCF7 breast was greater than 100 µM each time. The TGI in the assay on MDA-MB-231 breast, with MDA-N, with NCI/ADR-RES ovarian, in the assay with OVCAR-8 ovarian, with PC-3 prostate and in the assay with SF-268 CNS was greater than 100 µM in each case. The concentration for total growth inhibition (TGI) with SK-MEL-28 melanoma, in the assay on SK-MEL-5 melanoma, in the assay on SK-OV-3 ovarian, with SW-620 colon, in the assay with T-47D breast and in the assay with UACC-257 melanoma was greater than 100 µM throughout. In the assay with UO-31 renal, the TGI is greater than 100 µM.
